Assay results reported in paper PMC10942122 (Science Advances, 2024).
Several values for one entry are separate records, joined by “and”; a condition that tells them apart may be missing. Equal values may be shown once.

Legend:
Mtb H37Rv WT [1] = settings: cited from earlier work
Mtb H37Rv = settings: 10 μM, 24 hours, Mtb on filters
CoA-saturated PptT = molecular target: T1, CoA-saturated PptT (Mycobacterium tuberculosis, UniProt O33336); assay: biochemical; assay type: binding
T1 sequence (O33336 1-227): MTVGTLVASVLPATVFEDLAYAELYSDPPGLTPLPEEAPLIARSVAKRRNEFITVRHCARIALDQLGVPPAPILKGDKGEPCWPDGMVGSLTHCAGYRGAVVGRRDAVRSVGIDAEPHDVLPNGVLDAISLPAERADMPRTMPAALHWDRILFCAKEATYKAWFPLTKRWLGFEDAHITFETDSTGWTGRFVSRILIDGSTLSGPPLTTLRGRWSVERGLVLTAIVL

Mtb pptT cKD +ATc = assay: microbe, parasite or virus in culture; assay type: cell-based; settings: Mycobacterium tuberculosis, read-out: MIC90 PptT KD +ATc
PptT [2] = molecular target: T2, PptT (Mycobacterium tuberculosis, UniProt O33336); assay: Differential scanning fluorimetry thermal shift assay; assay type: binding; settings: for ΔTm of CoA-preincubated PptT: 50 μM Ralt-1, Hepes buffer without arginine/glutamate
T2 sequence (O33336 1-227): T1 sequence (O33336 1-227)

PptT [3] = molecular target: T2, PptT; assay: Preincubation and rapid dilution assay; assay type: biochemical; settings: 10 μM each preincubated, 500-fold dilution
Mtb DHFR = molecular target: T3, Mtb DHFR (Mycobacterium tuberculosis, UniProt P9WNX1); assay: Dihydrofolate reductase; assay type: biochemical
T3 sequence (P9WNX1 1-161): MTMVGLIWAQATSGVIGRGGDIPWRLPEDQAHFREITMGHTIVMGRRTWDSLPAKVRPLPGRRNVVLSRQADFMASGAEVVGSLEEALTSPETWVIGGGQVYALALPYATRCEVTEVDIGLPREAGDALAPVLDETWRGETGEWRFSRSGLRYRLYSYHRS

PptT [4] = molecular target: T2, PptT; assay: FP-based PptT enzyme assay; assay type: biochemical
Mtb pptH KO = assay: Minimal inhibitory concentration determination, pptH KO; assay type: cell-based; settings: Mycobacterium tuberculosis, read-out: MIC90 ΔPptH
[5] = system: Mtb pptT cKD -ATc (PptT depleted); assay type: cell-based, Mycobacterium tuberculosis; settings: PptT depleted by withholding ATc
PptT [6] = molecular target: T2, PptT; assay: BpsA assay of PptT activity with native CoA; assay type: biochemical
PptT [7] = molecular target: T2, PptT; assay: Kinetic mechanism assay for N-ACP PKS13 substrate; assay type: biochemical
Mtb H37Rv WT [8] = assay type: cell-based, Mycobacterium tuberculosis

SMILES	MIC90 against Mtb (Mtb H37Rv WT [1])	% Uptake from media (Mtb H37Rv)	Kd (CoA-saturated PptT)	MIC (Mtb pptT cKD +ATc)	ΔTm of CoA-preincubated PptT (PptT [2]; 1 mM CoA)	ΔTm of CoA-preincubated PptT (PptT [2]; 2 mM CoA)	gain in melting temperature (Tm) of PptT (PptT [2]; 1:10 molar ratio of protein to Ralt-1)	reversibility of binding to PptT (PptT [3])	IC50 (Mtb DHFR)	maximum inhibition (PptT [4]; FP assay, BDP-CoA, normalized)	IC50 (PptT [4]; IC50 PptT, FP assay at 100 nM PptT enzyme concentration)	IC50 (PptT [4]; IC50 PptT, FP assay, fresh/resupplied powder or purity-checked sample)	IC50 (PptT [4]; IC50 against rPptT)	Hill slope (h) (PptT [4]; concentration-response curve, FP assay)	MIC (Mtb pptH KO)	MIC90 PptT KD -ATc [5]	IC50 (PptT [6])	mode of inhibition with respect to the ACP substrate (PptT [7])	MIC90 H37Rv (Mtb H37Rv WT [8])	whole-cell activity / target profile against Mtb (in words) (Mtb H37Rv WT [8])
CN(Cc1cnc2nc(N)nc(N)c2n1)c1ccc(C(=O)N[C@@H](CCC(=O)O)C(=O)O)cc1 [Methotrexate]	> 100000 µM																			
Cc1nc2ccc(CN(C)c3ccc(C(=O)N[C@@H](CCC(=O)O)C(=O)O)s3)cc2c(=O)[nH]1 [Ralt-1, Raltitrexed]		1.2 ± 0.1%	290 ± 29 nM	> 100 µM	4 °C	3 °C	15 °C	readily reversible	8500 nM	≥ 100%	70 nM and 65 nM	~50 nM	730 nM	1.5	> 100 µM	>100000 nM	250 nM	noncompetitive mode of inhibition	>100 µM	no activity
